Test results reported in US6504005B1, “Long-acting drugs and pharmaceutical compositions comprising them” (Yeda Research and Development Co. Ltd., priority 1996, dated 2003).
Like-named read-outs stand apart in the source and are kept apart here.

Assays:
[1] = tested on: Staphylococcus aureus; settings: for Antimicrobial potency (%): relative to cephalexin control; for IC50: read-out: Concentration inhibiting 50% of bacterial growth (μM) (IC50)
Description: At the indicated time points, aliquots were withdrawn and analyzed for their potency to arrest growth of Staphylococcus aureus. Bacterial growth was then evaluated by increased turbidity measured spectroscopically at 700 nm.

[2] = tested on: penicillinase
[3] = tested on: experimental animal models; settings: cited from earlier work
[4] = Solubility and appearance in aqueous buffer (pH 7.4)
[5] = background statement; cited from earlier work
[6] = tested on: normal rats; experiment: Single intraperitoneal administration to normal rats, blood glucose levels; type: in vivo; settings: single i.p. injection, 3 mg/rat
Description: This assay reflects the post-subcutaneous long-acting feature of insulin (or insulin derivatives) within the circulation. Normal rats received a single intraperitoneal injection of native insulin, NPH-insulin and (Fmoc)2-insulin (3 mg/rat), and their blood glucose levels were monitored over a period of three days.
Blood glucose levels were followed for two days.

[7] = tested on: chymotrypsin and trypsin; experiment: Proteolysis by a mixture of chymotrypsin and trypsin (analytical HPLC); settings: pH 7.4, 37° C., chymotrypsin and trypsin 0.5% w/w each
Description: Chymotrypsin and trypsin (0.5% w/w, of each) was then added. At the indicated time points aliquots were withdrawn and subjected to analytical HPLC procedure.

[8] = tested on: STZ-diabetic rats; experiment: Single subcutaneous administration to STZ-diabetic rats (blood glucose, daily weight gain); settings: STZ rats, single s.c. 1 mg, followed seven days
Description: Diabetes was induced by a single intravenous injection of a freshly prepared solution of streptozotocin (55 mg/kg body weight) in 0.1M citrate buffer (pH 4.5) according to Meyerovitch et al., 1987.
Blood glucose levels and daily weight gains were followed over a period of seven days.
Group C (n=5) received the vehicle only (2.0 ml of 20% DMSO). Blood glucose levels were determined daily.

[9] = target: insulin receptor tyrosine kinase (Rattus norvegicus, UniProt P15127); experiment: Insulin receptor tyrosine kinase activity, [poly(Glu4Tyr)] phosphorylating assay (cell-free)
insulin receptor tyrosine kinase, sequence (P15127 27-759 limits assumed): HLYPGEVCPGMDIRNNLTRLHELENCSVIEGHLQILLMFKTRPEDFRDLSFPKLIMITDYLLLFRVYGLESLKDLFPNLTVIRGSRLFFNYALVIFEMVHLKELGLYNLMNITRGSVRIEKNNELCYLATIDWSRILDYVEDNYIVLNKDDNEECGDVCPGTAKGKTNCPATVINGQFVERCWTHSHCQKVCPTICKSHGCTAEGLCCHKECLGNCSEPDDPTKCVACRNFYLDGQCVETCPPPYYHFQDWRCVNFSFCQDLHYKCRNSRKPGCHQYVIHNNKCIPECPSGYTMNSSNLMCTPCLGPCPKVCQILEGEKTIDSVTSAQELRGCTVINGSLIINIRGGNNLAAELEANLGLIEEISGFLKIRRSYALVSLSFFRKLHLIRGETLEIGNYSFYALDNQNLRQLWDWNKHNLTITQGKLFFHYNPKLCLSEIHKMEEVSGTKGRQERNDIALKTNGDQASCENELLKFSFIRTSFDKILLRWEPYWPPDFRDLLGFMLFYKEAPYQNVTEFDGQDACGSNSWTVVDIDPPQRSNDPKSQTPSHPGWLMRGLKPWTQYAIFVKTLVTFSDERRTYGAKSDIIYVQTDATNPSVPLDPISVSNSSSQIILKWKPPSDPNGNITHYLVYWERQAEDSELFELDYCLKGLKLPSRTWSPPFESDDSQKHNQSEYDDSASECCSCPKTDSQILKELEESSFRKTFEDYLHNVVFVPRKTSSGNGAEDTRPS
insulin receptor tyrosine kinase, sequence (P15127 764-1383 partner limits assumed): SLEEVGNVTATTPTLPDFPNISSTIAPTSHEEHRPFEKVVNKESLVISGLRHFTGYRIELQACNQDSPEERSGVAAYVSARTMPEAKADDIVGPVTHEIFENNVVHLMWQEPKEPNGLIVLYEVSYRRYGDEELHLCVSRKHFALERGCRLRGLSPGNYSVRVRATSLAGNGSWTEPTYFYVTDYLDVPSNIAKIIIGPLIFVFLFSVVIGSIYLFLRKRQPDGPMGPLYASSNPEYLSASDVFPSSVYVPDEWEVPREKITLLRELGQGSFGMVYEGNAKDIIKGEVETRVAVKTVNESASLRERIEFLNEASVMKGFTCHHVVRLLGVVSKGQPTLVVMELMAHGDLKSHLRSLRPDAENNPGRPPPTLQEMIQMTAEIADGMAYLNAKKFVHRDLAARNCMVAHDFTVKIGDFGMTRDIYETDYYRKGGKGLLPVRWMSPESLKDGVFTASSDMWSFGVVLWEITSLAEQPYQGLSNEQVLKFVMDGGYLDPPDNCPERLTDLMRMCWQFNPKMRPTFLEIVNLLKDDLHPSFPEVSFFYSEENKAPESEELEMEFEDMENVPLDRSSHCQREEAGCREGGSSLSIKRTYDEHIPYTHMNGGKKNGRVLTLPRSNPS
Description: Briefly, the liver was homogenized in the presence of proteinase inhibitors, solubilized with 1% Triton X-100, and centrifuged. The supernatant was allowed to pass through a wheat-germ agglutinin (WGA)-agarose column (Sigma). Adsorbed insulin receptor portion was eluted with 0.3M N-acetyl-D-glucose amine in 50 mM HEPES buffer, pH 7.4, containing 0.1% Triton X-100, 10% glycerol, and 0.15M NaCl.
(iv) Receptor Tyrosine Kinase Activity Measurement
In this assay insulin activates its own receptor to phosphorylate a random copolymer containing L-glutamic acid and L-tyrosine at 4:1 molar ratio [Poly(Glu4Tyr)]SEQ ID NO:1. The standard enzyme assay mixture (final volume 60 μl in 50 mM Hepes, pH 7.4-0.1% Triton X-100) contained WGA purified insulin receptor (5μg protein), 20 mM MgCl2, 2 mM MnCl2, 100 μM ATP and varying concentrations (from 1 ng/ml to 10 mg/ml) of insulin or insulin derivative. Following a 30 min preincubation at 22° C., the reaction was initiated by adding Poly(Glu4Tyr) SEQ ID NO:1 (final concentration 0.7 mg/ml), it proceeded for 20 min at 22° C. and was terminated by adding EDTA (20 mM). Phosphotyrosine content in PolyGlu4Tyr was quantitated by a radio-immunoassay procedure using specific monoclonal antibodies to phosphotyrosine (final dilution 1: 100,000) and ^125I-BSA-phosphotyrosine conjugate.

CC1=C(C(=O)O)N2C(=O)[C@@H](NC(=O)[C@H](NC(=O)OCC3c4ccccc4-c4ccccc43)c3ccccc3)[C@H]2SC1 [Fmoc-cephalexin, N-Fmoc-cephalexin]
Antimicrobial potency (%) ([1]; after 1 day at pH 7.4, 37° C.): 10% | Antimicrobial potency (%) ([1]; after 3 days at pH 7.4, 37° C.): 59% | Antimicrobial potency (%) ([1]; after 6 days at pH 7.4, 37° C.): 100% | Antimicrobial potency (%) ([1]; after 6 days at pH 7.4, 37° C., listed as N-Fmoc-cephalexin): about 50% | Antimicrobial potency (%) ([1]; no incubation): ~6% | Stability upon incubation ([1]; pH 7.4, 37° C.): significantly more stable | IC50 ([1]; after 1 day at pH 7.4, 37° C.): 15 µM | IC50 ([1]; after 3 days at pH 7.4, 37° C.): 9 µM | IC50 ([1]; after 6 days at pH 7.4, 37° C.): 4.5 µM | IC50 ([1]; no incubation): 23 µM | Stability to hydrolysis by penicillinase [2]: more stable to hydrolysis by penicillinase than the parent compound

CC(C)C[C@H](NC(=O)OCC1c2ccccc2-c2ccccc21)C(=O)O [Fmoc-leucine]
Index of toxicity [3]: low index of toxicity

Native insulin: Human insulin, native hormone; parent drug and reference
Appearance in aqueous buffer (pH 7.4) [4]: clear | Solubility in aqueous buffer (pH 7.4, mg/ml) [4]: ˜4 or higher mg/ml | Half-life in plasma [5]: 5 to 6 min | Period of hypoglycemia / reduced blood glucose [6]: about 12 hours | Recovery from hypoglycemia, t½ [6]: 480 min | Proteolysis t½ [7]: 30 min | Daily weight gain [8]: 0.57±0.08 g/rat/day | Biological potency following incubation (2 days, 37° C., pH 8.5) ([9]; after 2 days, 37° C., pH 8.5): 100 | Biological potency (%) ([9]; of native insulin potency, before incubation, [poly(Glu4Tyr)] phosphorylating assay): 100% | Concentration for half maximal effect ([9]; receptor tyrosine kinase assay): 20 ± 3 ng/mL
